Results as given in patent publication US8765803B1, “Rab7 GTPase inhibitors and related methods of treatment” (STC.UNM, priority 2011, dated 2014).
“And” between values parts separate entries of the source, which are not always exact repeats. Identical values can stand only once. Like-named read-outs stand apart in the source and are kept apart here.

Experiments:
Rab7 wt [1] = test: Equilibrium binding with varying fluorescent nucleotide at fixed CID1067700 concentration
Description: Dose response assays were conducted in two different modes. […].
[…]. […] […].

[2] = tested on: EGFR degradation in HeLa-Rab7 wt cells; test: EGFR degradation in Rab7 overexpressing HeLa cells; assay type: cell-based, human; details: 100 μM
Description: EGFR degradation was also monitored in HeLa cells with some minor modifications. […] Cell lysates were prepared at various time points and immunoblotted for total EGFR while actin served as a loading control.

[3] = Chemical stability towards L-glutathione in DMSO, LCMS; assay type: physicochemical; details: 1.2-3.0 eq L-glutathione in DMSO, 37° C., up to 72 h
Description: The three experiments were monitored by LCMS at each of the following time points: 1 h, 2 h, 4 h, 24 h, 48 h, and 72 h. Procedure: […]

[4] = Solubility in PBS and assay media, UV absorbance detection; assay type: physicochemical; details: read-out: Solubility
Description: Solubility was measured in phosphate buffered saline (PBS) at room temperature (23° C.). PBS by definition is 137 mM NaCl, 2.7 mM KCl, 10 mM sodium phosphate dibasic, 2 mM potassium phosphate monobasic and a pH of 7.4. Detection was based on UV absorbance. […]. Solubility was also assessed in the each of the four media used in the individual assays. […]

VLA-4 integrin = test: LDV binding assay in U937 ΔST cells; assay type: cell-based; details: FITC-LDV 4 nM, after N-formyl peptide stimulation
Description: The procedure followed the established protocols described previously. U937 ΔST cells (0.4−0.8×10^6 cells/mL) were constantly stirred with a magnetic stir bar at 500 rpm in a test tube. The fluorescence was recorded on a FACScan flow cytometer. The base line fluorescence of the cells was established for 30s. FITC-LDV at a concentration of 4 nM was then added. After the fluorescence stabilized at around 120s, the chemotactic ligand N-formyl peptide was added for stimulation resulting activation of VLA-4 integrin and additional FITC-LDV binding. […] Fluorescence was continually recorded until no further change was observed. The inhibition percentage was calculated according to Equation 1.

[5] = tested on: Ras-related GTPases (Cdc42 wt, Rac1wt, Rac1Q61L, Rab2 wt, Rab7 wt, and H-Ras wt); details: secondary multiplex dose response
Description: The eight GTPases were grouped into two sets: Rab7, H-Ras wild type and its V12 mutant, and Cdc42 and its L61 mutant were assayed in a buffer containing 1 mM EDTA, while Rho, Rac1 and its L61 mutant, and Cdc42 and its L61 mutant were assayed in the same buffer but instead containing 1 mM Mg^2+ with Cdc42 and its mutant being tested in both buffers. Besides 1 mM EDTA or 1 mM Mg^2+, the buffer contained 30 mM HEPES, pH 7.5, 40 mM KCl, 100 mM NaCl, 0.1% (v/v) NP-40 and 1% BSA. For each multiplex reaction, an extra set of beads was included to serve as scavengers to bind any proteins that dissociate from their assigned bead set and thereby reduce interference due to protein dissociation during the assay. […] Briefly, each individual GST-tagged enzyme was incubated with 4 μm glutathione-coated microsphere beads overnight with gentle rotation. The microsphere beads have different red fluorescence dyes incorporated and therefore could be separated by a flow cytometer. The unbound enzyme was removed by sufficient washing with the buffer. The bead sets were then combined and dispensed to 384-well plates at 5 μL/well. For one plate, 0.5 μg each of the enzymes and 4.0×10^4 of each bead were used. Then 100 nL compound was added using Biomek FX followed by the addition of 5 μL/well of BODIPY-FL-GTP (ribose-linked BODIPY). […] The beads were aspirated and delivered with the HyperCyt® instrument and read on CyAnADP flow cytometer. Forward scatter and side scatter was used to define the whole bead population. […] The data was analyzed by the HyperView® software developed by Dr. Bruce Edward at the University of New Mexico.
Briefly, six sets of beads (each with a unique red fluorescence intensity) were individually coated with six representative GST-tagged Ras-related GTPases (Cdc42 wt, Rac1wt, Rac1Q61L, Rab2 wt, Rab7 wt, and H-Ras wt) (FIG. 29A). The individually conjugated beads were then assayed in the presence of individual compounds in the Molecular Libraries Small Molecule Repository using a HyperCyt flow cytometry to identify molecules that altered the binding of fluorescent nucleotide to Ras-family GTPases (36).

U937 cells = test: Cytotoxicity of compounds, cell density and viability; assay type: cell-based
Description: U937 cells were grown to a density of 0.4×10^6 cells/mL Compounds were added to a final concentration of 20 μM or otherwise indicated. As a control, cells were treated with DMSO of the same volume. After 24 h incubation, the density and viability of the cells were measured with Countess Cell Counter according to the protocols from the manufacturer.

[6] = Stability in PBS at room temperature; assay type: physicochemical; details: 23° C., after 48 hours, no antioxidants, DMSO below 0.1%
Description: Stability, depicted as closed circles in the graph, was assessed at room temperature (23° C.) in PBS (no antioxidants or other protectants and DMSO concentration below 0.1%). Stability data is depicted as a graph showing the loss of compound with time over a 48 hr period with a minimum of 6 time points and providing the percent remaining compound at end of the 48 hr period.

[7] = tested on: EGFR degradation in SCC-12F cells; test: EGFR degradation in SCC-12F cells; assay type: cell-based; details: human keratinocytes (SCC-12F), 10-100 μM
Description: SCC-12F cells were seeded in 12-well plates at 0.12×10^6 cells/well and allowed to grow overnight. On the day of the experiment, the cells were starved in serum free medium containing 25 μg/mL cycloheximide for 2 h before compounds at different concentrations were added. The cells were treated for 30 min. Then, ligand EGF was added to 20 nM. At time points of 0, 15, 30, 60, and 120 min after the EGF addition, the suspension medium was removed and the cell was quickly washed with cold PBS and frozen at −80° C. For electrophoresis and blotting, CelLytic™M Cell Lysis buffer containing protease inhibitor cocktails was added to the frozen cells to obtain the cell lysates according to the protocols from the manufacture. Protein concentration was quantified using BCA assay kit. For SDS-PAGE, 10 μg protein was loaded to each lane and proteins transferred to nitrocellulose. The nitrocellulose membranes were probed with antibodies directed against EGFR or actin and detected using peroxidase conjugated secondary antibodies and SuperSignal West Dura. Signal intensities were measured and quantified using a ChemiDoc™ XRS+ molecular imager coupled with Image Lab software.

Rab7 wt [8] = test: Nucleotide dissociation assay under equilibrium conditions; details: CID1067700 10 μM, compared with unlabeled GDP 10 μM
Description: This low level bead associated fluorescence was subtracted from specific binding to obtain accurate measurement of the off rates. Data normalization was performed by subtracting dilution only values from competitor treated experimental values.
The experiment was carried out by pre-binding BODIPY-GTP or BODIPY-GDP to GST-tagged Rab7 protein to equilibrium and then assaying for the loss of fluorescence over time occasioned by the release of bound nucleotide (FIG. 31A-D). […] Dissociation rate constants were calculated from data fit to exponential functions using Prism software.

CC1(C)Cc2c(sc(NC(=S)NC(=O)c3ccccc3)c2C(=O)O)CO1 [CID1067700, 2-(3-benzoylthioureido)-5,5-dimethyl-5,7-dihydro-4H-thieno[2,3-c]pyran-3-carboxylic acid]
Increase of Ki (Cheng Prusoff) between inhibition of BODIPY-GTP and BODIPY-GDP (Rab7 wt [1]): 2 fold | Effect on Rab7 wt Bmax for BODIPY-GTP (Rab7 wt [1]; CID1067700 100 nM): does not alter | Effect on Rab7 wt Bmax for BODIPY-GDP (Rab7 wt [1]; CID1067700 200 nM): does not alter | Increase in observed EC50 for both nucleotides in the presence of CID1067700 (Rab7 wt [1]; CID1067700 fixed at 100-200 nM): ≤ 3 fold | Growth factor receptor (EGFR) degradation [2]: decreased | Glutathione conjugate formation by LCMS [3]: did not result in LCMS detection of any conjugates or other product peaks | Glutathione conjugate formation by LCMS ([3]; listed as SID 85747738): No glutathione conjugate or other peaks were observed | solubility ([4]; Dose Response-EDTA buffer, pH 7.5, aqueous with cosolvent or surfactant or cyclodextrin, Dose Response-EDTA buffer: 30 mM HEPES, pH 7.5, 100 mM KCl, 20 mM NaCl, 0.01% NP-40, 1 mM EDTA): 69.7 µg/mL | solubility ([4]; Dose Response-EDTA buffer, pH 7.5, aqueous with cosolvent or surfactant or cyclodextrin, Dose Response-EDTA buffer): 178 µM | solubility ([4]; Dose Response-Mg buffer, pH 7.5, aqueous with cosolvent or surfactant or cyclodextrin, Dose Response-Mg buffer: 30 mM HEPES, pH 7.5, 100 mM KCl, 20 mM NaCl, 0.01% NP-40, 1 mM MgCl2): 68.1 µg/mL | solubility ([4]; Dose Response-Mg buffer, pH 7.5, aqueous with cosolvent or surfactant or cyclodextrin, Dose Response-Mg buffer): 174 µM | solubility ([4]; phosphate buffered saline (PBS), 23 °C, pH 7.4, aqueous buffer, 1 × PBS, pH 7.4, room temperature (23° C.)): > 116 µg/mL and > 297 µM | VLA4 binding with LDV peptide (VLA-4 integrin): inhibits | EC50 ([5]; read-out: EC50 against all tested GTPases, fluorescent GTP): 20 to 500 nM | Inhibition against all tested GTPases [5]: at least 40% | Cell viability of U937 cells after treatment (U937 cells; 24 h, 20 μM): 94% | Cytotoxicity in U937 cells (U937 cells; 24 h in growth medium): no obvious cytotoxicity | Percent remaining compound [6]: 77% | Growth factor receptor (EGFR) degradation [7]: decreased | Effect on rate of release of bound BODIPY-GTP or BODIPY-GDP (Rab7 wt [8]): no effect
